Values of other authors as cited in patent US7141428B2 (priority 2000, dated 2006).

Columns and labels:
growth cone collapse = conditions: collapse induced by activation of Rho or ROK
[1] = target: Rho kinase (Rho-associated protein kinase, p160ROCK) (Homo sapiens, UniProt Q13464)
Chain of Rho kinase (Rho-associated protein kinase, p160ROCK) (Q13464 whole entry, looked up): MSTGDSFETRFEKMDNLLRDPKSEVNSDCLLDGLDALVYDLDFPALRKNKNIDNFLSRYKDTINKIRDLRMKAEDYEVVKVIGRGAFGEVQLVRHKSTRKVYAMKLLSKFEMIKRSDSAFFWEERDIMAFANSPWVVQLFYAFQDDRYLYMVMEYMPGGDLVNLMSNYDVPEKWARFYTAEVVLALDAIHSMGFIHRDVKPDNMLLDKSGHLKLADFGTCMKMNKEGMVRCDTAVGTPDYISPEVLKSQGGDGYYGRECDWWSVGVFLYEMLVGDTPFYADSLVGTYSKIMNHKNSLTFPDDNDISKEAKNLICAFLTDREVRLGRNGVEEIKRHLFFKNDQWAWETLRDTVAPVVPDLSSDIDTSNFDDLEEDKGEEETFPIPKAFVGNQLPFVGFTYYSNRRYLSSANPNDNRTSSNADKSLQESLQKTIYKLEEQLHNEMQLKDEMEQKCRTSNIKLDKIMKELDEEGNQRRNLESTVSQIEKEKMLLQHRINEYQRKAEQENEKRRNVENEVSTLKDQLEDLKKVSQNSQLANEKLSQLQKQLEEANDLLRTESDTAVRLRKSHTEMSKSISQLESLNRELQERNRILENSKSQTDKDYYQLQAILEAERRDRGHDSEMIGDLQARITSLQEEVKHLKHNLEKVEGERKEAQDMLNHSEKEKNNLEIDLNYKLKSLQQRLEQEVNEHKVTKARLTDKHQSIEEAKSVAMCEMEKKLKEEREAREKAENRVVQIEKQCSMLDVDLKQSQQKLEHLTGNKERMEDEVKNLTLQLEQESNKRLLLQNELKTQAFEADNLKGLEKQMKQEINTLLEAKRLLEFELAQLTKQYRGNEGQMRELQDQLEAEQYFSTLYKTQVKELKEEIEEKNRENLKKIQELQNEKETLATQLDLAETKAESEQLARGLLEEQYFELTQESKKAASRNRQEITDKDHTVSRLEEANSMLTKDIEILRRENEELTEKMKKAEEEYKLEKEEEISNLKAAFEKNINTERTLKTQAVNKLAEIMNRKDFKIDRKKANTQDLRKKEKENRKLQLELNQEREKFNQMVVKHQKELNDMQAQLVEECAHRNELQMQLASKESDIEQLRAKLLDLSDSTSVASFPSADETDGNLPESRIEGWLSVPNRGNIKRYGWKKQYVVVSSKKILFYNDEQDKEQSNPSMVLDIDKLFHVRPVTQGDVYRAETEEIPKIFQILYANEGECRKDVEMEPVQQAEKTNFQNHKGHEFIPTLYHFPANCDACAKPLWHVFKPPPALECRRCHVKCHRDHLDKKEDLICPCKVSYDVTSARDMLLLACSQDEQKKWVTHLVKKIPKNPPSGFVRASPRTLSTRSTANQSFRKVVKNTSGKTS

C[C@@H](N)[C@H]1CC[C@H](C(=O)Nc2ccncc2)CC1 [Y-27632, (R)-(+)-trans-N-(4-pyridyl)-4-(1-aminoethyl)-cyclohexanecarboamide]
prevention of growth cone collapse (growth cone collapse): can be prevented | concentration at which Rho kinase is inhibited [1]: sub-micromolar
